The text below walks through data of patent US20050163879A1, “Composition for preventing or treating dementia comprising a hydroxycinnamic acid derivative or an extract of a plant of genus Angelicae containing same” (Scigenic Co. Ltd. Biosynergen, Inc., priority 1999, published 2005).

Experiment [1] concerns mice administered with β-amyloid (1-42). The experiment can be described thus: Passive avoidance test in mice injected with β-amyloid (1-42) into the cerebral ventricle. Format: in vivo, mouse. The following applies: for dementia-preventive effect in passive avoidance test: FIGS. 7A and 7B. The procedure:
(§1) The administration of β-amyloid (1-42) to a mouse was carried out in accordance with the method described by Laursen & Belknap (J. Pharmacol. Methods, 16, 355-357 (1986)). Specifically, 5 μl of phosphate-buffered saline containing 1.85 μg of β-amyloid (1-42) was put in a 50 μl Hamilton syringe fitted with a 26 gauge needle, the tip of the needle was inserted into the bregma of the mouse and then the β-amyloid (1-42) solution was administered thereto. Each mouse of a control group received an equal amount of β-amyloid (42-1) in place of β-amyloid (1-42). A passive avoidance test was carried out at days 1-2 (day 1: training, day 2: test) and a Y-maze test, at days 3-4 (day 3: training, day 4: test) after the administration.
In order to examine the learning and memory-retention ability of a mouse, a passive avoidance test was carried out in accordance with the method described in Song et al., J. Neurochem., 71, 875-878 (1998), as follows.
A passive avoidance case equipped with a light room and a dark room was prepared, the floor of the dark room being designed to deliver an electrical shock to a test animal. First, a mouse was put in the light room and, upon entering the dark room, it received an electrical shock at 0.25 mA for 1 sec. Twenty-four hours after the training, the mouse was put in the light room again and the time it took to enter the dark room was measured as a passive avoidance time. The maximum time was set at 300 sec., i.e., in case when the mouse took more than 300 sec. to enter the dark room, the passive avoidance time was determined to be 300 sec.
Forty 4- to 5-week old mice each weighing 20 to 25 g were divided into four groups of equal number. The Angelicae gigas Nakai extract prepared in Example 1 was dissolved in water to concentrations of 0.08% (w/v) and 0.1% (w/v), respectively, […] the solution/mouse. The mice of the other two groups were provided with normal drinking water for 4 weeks. Thereafter, the mice of one of the two normal drinking water groups were administered into their cerebral ventricle with 1.85 μg of β-amyloid (42-1) (“control group”) and the mice of the remaining three groups, with β-amyloid (1-42) (Aβ1-42), as in Reference Example 1. Then, a passive avoidance test was carried out for each group of mice as in Reference Example 2 and the data attained were averaged for each group.
Fifty 4- to 5-week old mice each weighing 20 to 25 g were divided into five groups by equal number. Ferulic acid was dissolved in water to concentrations of 0.002% (w/v), 0.004% (w/v) and 0.006% (w/v), respectively, […] the solution/mouse. The mice of the other two groups were provided with normal drinking water for 4 weeks. Thereafter, the mice of one of two normal drinking water groups were administered into their cerebral ventricle with 1.85 μg of β-amyloid (42-1) (“control group”) and the mice of the remaining four groups, with β-amyloid (1-42)(Aβ1-42), as in Reference Example 1. Then, a passive avoidance test was carried out for each group of mice as in Reference Example 2 and the data attained were averaged for each group.
Forty 4- to 5-week old mice each weighing 20 to 25 g were divided into four groups of equal number. Decursinol was dissolved in corn oil, mixed with a mouse fodder, and the mice of two groups were provided with the resulting fodder for 4 weeks at a daily dose of 7.5 mg decursinol/kg or 15 mg decursinol/kg. […]

The test system is the same in experiment [2]. Kind of experiment: Y-maze test in mice injected with β-amyloid (1-42) into the cerebral ventricle. The settings on record: for alternation behavior (%): compared with β-amyloid (1-42) only group. Format: in vivo, mouse. The procedure:
as §1
Spontaneous alternation behavior of a mouse was examined by a Y-maze test in accordance with the method described in Starter et al., Psychopharmacology, 94, 491-495 (1988) as follows.
The Y-maze consisted of three arms shaped like Y. A test mouse was placed in one of the arms such that it faced the arm's terminal and allowed to roan freely through the three arms for […]. The number of alternation was determined by counting the number of occasions the mouse passed the three arms consecutively. Spontaneous alternation behavior was determined as the percentage of the alternation number based on the total number of arm entries.
Further, Y-maze tests were carried out employing the above-prepared mice as in Reference Example 3.
Forty 4- to 5-week old mice each weighing 20 to 25 g were divided into four groups of equal number. Decursinol was dissolved in corn oil, mixed with a mouse fodder, and the mice of two groups were provided with the resulting fodder for 4 weeks at a daily dose of 7.5 mg decursinol/kg or 15 mg decursinol/kg. The mice of the other two groups were provided with a normal mouse fodder containing an equal amount of corn oil as above for 4 weeks. Thereafter, the mice of one of the two normal fodder groups were administered, into their cerebral ventricle, with 1.85 μg of β-amyloid (42-1) (“control group”) and the mice of the remaining three groups, with β-amyloid (1-42) (Aβ1-42), as in Reference Example 1. Then, a passive avoidance test and a Y-maze test were carried out for each group of mice as in Reference Examples 2 and 3, respectively, and the data attained were averaged for each group.

In experiment [3] the test system is choline acetyltransferase (ChAT). Kind of experiment: Immunohistochemical staining of ChAT in septal nucleus 5 days after β-amyloid. It counts as in vivo, mouse. The settings on record: 0.006% (w/v) ferulic acid for 4 weeks, then β-amyloid (1-42), vs β-amyloid (1-42) only, FIG. 9c. The procedure:
Three groups of mice were administered with ferulic acid and/or β-amyloid in accordance with the method of (1). 5 days after the administration of β-amyloid, immunohistochemical staining was carried out according to the method of (1) except for employing 1:750 dilution of anti-choline-acetyltransferase (ChAT) antibody (Chemicon) in order to stain CHAT, an enzyme for acetylcholine synthesis, in the septal nucleus wherein acetylcholine neurons are distributed.

The subject of a further experiment is mouse cerebral neurons. Kind of experiment: β-amyloid (1-42)-induced leakage of lactate dehydrogenase (LDH) from primary mouse cortical culture. It counts as cell-based. The settings on record: 100 μM ferulic acid 30 minutes before 25 μM β-amyloid (1-42); 24 and 48 hours; vs β-amyloid (1-42) group; FIG. 10. The procedure:
In accordance with the method of Wie et al. (Neurosci. Lett., 225: 93-96 (1997)), glia was cultured from cells of the cerebral cortex of a mouse and neurons of mouse cerebrum were cultured by employing the glia as a substrate.
The culture of mouse cerebral neurons was divided into three groups. Neurons of one group received no treatment (control group). Neurons of the other two groups were treated with 25 μM of β-amyloid (1-42), and one of these two groups were treated with 100 μM of ferulic acid 30 minutes before the administration of β-amyloid (1-42).
The degree of damage in neurons was determined by measuring the concentration of lactate dehydrogenase (LDH), which was released from the damaged or disrupted neurons into the culture medium, in accordance with the method of Wie et al. Samples of the culture medium were taken at 24 and 48 hours after the administration of β-amyloid (1-42), respectively, and their LDH concentrations were measured with a microplate reader.

For another experiment, the system named is OX-42. The experiment can be described thus: Immunohistochemical staining of OX-42 in pyriform cortex and amygdaloid nucleus one day after β-amyloid. Format: in vivo, mouse. The settings on record: 0.006% (w/v) ferulic acid in drinking water for 4 weeks, then β-amyloid (1-42); 1 day after; vs β-amyloid (1-42) only; FIGS. 8c and 8f. The procedure: 4- to 5-week old mice each weighing 20 to 25 g was divided into three groups. Ferulic acid was dissolved in water to a concentration of 0.006% (w/v), and the mice of one group were provided with the resulting solution instead of water for 4 weeks. The mice of other two groups were provided with normal drinking water for 4 weeks. Thereafter, the mice of one of two normal drinking water groups were administered, into their cerebral ventricle, with 1.85 μg of β-amyloid (42-1) (“control group”) and the mice of the remaining two groups, with β-amyloid (1-42) (β1-42), as in Reference Example 1.
One day after the administration of β-amyloid, each of the mice was anesthetized with sodium pentobarbital and its abdomen was incised. The mouse was fixed by passing 4% paraformaldehyde through its left ventricle and its brain was excised.
In accordance with the method described in Cho et al., J. Comp. Neurol., 369: 264-276 (1996), a section was prepared from the excised brain and immunohistochemical staining was carried out in order to stain […] in the pyriform cortex and the amygdaloid nucleus by employing 1:500 dilution of anti-OX-42 antibody (Halan (Sera-Lab)).

The structures appear in SMILES notation.

With `CC1(C)Oc2cc3oc(=O)ccc3cc2C[C@@H]1O` [decursinol], in experiment [1] (decursinol alone, low amount: 2 mg/kg or 3 mg/kg), the “dementia-preventive effect in passive avoidance test” value was “no dementia-preventive effect”. Besides, the “decrease in passive avoidance response time due to β-amyloid (1-42)” value in experiment [1] (decursinol in fodder, 7.5 mg/kg or 15 mg/kg daily for 4 weeks, FIG. 6A) is “prevented”. Also, the “number of arm entries (measure of spontaneous movement)” value in experiment [2] (decursinol 7.5 mg/kg or 15 mg/kg daily for 4 weeks, FIG. 6C) was “nearly the same for all groups”. Also, the “alternation behavior (%)” value in experiment [2] (decursinol 7.5 mg/kg or 15 mg/kg daily for 4 weeks, FIG. 6B) is “higher and increased dose-dependently”.

Turning to `COc1cc(/C=C/C(=O)O)ccc1O` [ferulic acid], the “ChAT staining in septal nucleus” value in experiment [3] was “the decrease was suppressed”. In addition, the “LDH concentration in culture medium” value with mouse cerebral neurons is reported as “much lower”. In experiment [1] (0.006& (w/v) ferulic acid for 1, 2, 3 and 4 weeks, FIG. 3B), the “passive avoidance response time” value is reported as “becomes increasingly higher with the period of administration”. For the same compound, in experiment [1] (ferulic acid 0.002%, 0.004% and 0.006% (w/v) in drinking water for 4 weeks before Aβ1-42, FIG. 3A), the “decrease in passive avoidance response time” value is on record as “prevented dose-dependently”. Moreover, the “dementia-preventive effect in passive avoidance test” value in experiment [1] (ferulic acid alone, low amount: 0.002% (w/v) or 0.003% (w/v)) is listed as “no dementia-preventive effect”. The “OX-42 staining in pyriform cortex and amygdaloid nucleus” value in the experiment with OX-42 is listed as “much less pronounced”. Also, in experiment [2] (ferulic acid, period of administration varied, FIG. 4B), the “number of arm entries (measure of spontaneous movement)” value was “nearly the same for all groups”. The “alternation behavior (%)” value in experiment [2] (ferulic acid, period of administration varied, FIG. 4A) is “higher and increased in proportion to the period of administration”.
